Source: PubChem BioAssay AID1963849 (Molecular Pharmacology Branch, DTP, NCI, 2024)

Test system: 299254-011-R-J1-PDC complex spheroid viability
Test: Anticancer human tumor 299254-011-R-J1-PDC patient-derived melanoma cell line growth inhibition [POLQ]
Details: for IC50: curve of first compound; for viability, T/C: stronger effect = lower value
Method: Multicellular complex tumor spheroid response to Polymerase (POL) inhibitors (novobiocin, ART-558, RP6685) in combination with a variety of drugs and investigational agents in selected tumor cell lines
The POL inhibitors (novobiocin, ART-558, and RP6685) were evaluated both individually and in combination with standard of care and investigational anticancer small molecules within a complex spheroid model of solid tumors. . Complex spheroids include a stromal component modeled by human endothelial cells (HUVEC) and fibroblasts modeled by human mesenchymal stem cells (MSCs). The concentration ranges selected for each drug and investigational agent were based upon clinically achievable concentrations if the clinical Cmax of the agent was known.
Compounds. The drugs and investigational agents: novobiocin (NSC847541), ART-558 (NSC835418), RP-6685 (NSC848927), peposertib (NSC802822), ceralasertib (NSC780249), elimusertib (NSC800525), camonsertib (NSC841442), AZD-1390 (NSC803789), olaparib (NSC753686), talazoparib (NSC767125), rucaparib (NSC756644), sotorasib (NSC818433), MRTX-1133 (NSC836407), SN-38 (NSC673596), topotecan (NSC609699), epotoside (NSC141540), doxorubicin (NSC123127), gemcitabine (NSC613327), 5-fluorouracil (NSC19893), paclitaxel (NSC125973), vemurafenib (NSC761431), MSA-2 (NSC828583), SN-011 (NSC837082), adavosertib (NSC754352), prexasertib (NSC758257), carboplatin (NSC241240) and oxaliplatin (NSC266046), were obtained from the National Cancer Institute (NCI) Developmental Therapeutics Program Chemical Repository (21). The FDA-approved anticancer drug set is available from the Developmental Therapeutics Program at https://dtp.cancer.gov/organization/dscb/obtaining/. […] The stock solutions were prepared in dimethyl sulfoxide (DMSO, Sigma-Aldrich, St. Louis, MO, cat. D2650), except for the platinum compounds which were prepared in saline (Quality Biological, Gaithersburg, MD, cat. 114-055-101), at 800-fold the tested concentration and stored at -70 degrees C prior to their use. All drugs and investigational agents were tested over a range starting from a high concentration at or near the clinical Cmax and decreasing in half-log increments. If the clinical Cmax for an agent had not been determined, the highest concentration tested was 10 microM, except for SN-38, which was tested at a high concentration of 1 microM.
Cell Culture. All cells were maintained in an incubator at 37 degrees C and 5% CO2 with 95% humidity. The PDC lines were cultured according to standard operating procedures established by the NCI PDMR (https://pdmr.cancer.gov). Table 3 of the manuscript, lists the cell lines along with the number of the three cell types plated to form the mct-spheroids and media for tumor cell growth. After thawing, all PDC lines, except 997537-175-T-J1-PDC and 415267-285-R-J2-PDC, were cultured in Matrigel-coated flasks prepared with a working solution of 1X Ham's F-12 nutrient mix, without supplementation (Thermo Fisher Scientific, cat. 11765054), 100 U/mL penicillin-streptomycin (Thermo Fisher Scientific, cat. 15140122), and 2.5% Matrigel (Corning Inc., Corning, NY, cat. 354248) for the first three passages. The two PDC lines 997537-175-T-J1-PDC and 415267-285-R-J2-PDC were cultured on uncoated flasks. The 857933-349-R-J2-PDC line was cultured in 6C/Colon 1B media containing advanced DMEM/F-12 (Thermo Fisher Scientific, cat. 12634028), 10 mM HEPES (Thermo Fisher Scientific, cat. 15630080), 1X GlutaMAX supplement (Thermo Fisher Scientific, cat. 35050061), 0.1 mg/mL primocin (InvivoGen, San Diego, CA, cat. ant-pm-2), 10% defined fetal bovine serum, heat inactivated (HyClone Laboratories Inc., Logan, UT, cat. SH30070.03HI), 50% L-WRN conditioned media (ATCC, cat. CRL-3276), 1.25 mM N-Acetyl-L-cysteine (Sigma-Aldrich, cat. A9165), 10 mM nicotinamide (Sigma-Aldrich, cat. N0636), 1X B-27 supplement (Thermo Fisher Scientific, cat. 17504044), 1X N-2 supplement (Thermo Fisher Scientific, cat. […]

[1] = second compound 0.0316 µM, first compound 0.0316 µM
[2] = second compound 0.0316 µM, first compound 0.1 µM
[3] = second compound 0.1 µM, first compound 0.0316 µM
[4] = second compound 0.1 µM, first compound 0.1 µM
[5] = second compound 0.316 µM, first compound 0.0316 µM
[6] = second compound 0.316 µM, first compound 0.1 µM
[7] = second compound 1 µM, first compound 0.0316 µM
[8] = second compound 1 µM, first compound 0.1 µM
[9] = second compound 3.16 µM, first compound 0.0316 µM
[10] = second compound 3.16 µM, first compound 0.1 µM
[11] = second compound 10 µM, first compound 0.0316 µM
[12] = second compound 10 µM, first compound 0.1 µM
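Note: spheroids exposed to drugs for one week before measurement.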
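Throughout, for viability, T/C: percent viability relative to DMSO vehicle control taken as 100%.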

In the case of `COc1cccc2c1C(=O)c1c(O)c3c(c(O)c1C2=O)CC(O)(C(=O)CO)CC3OC1CC(N)C(O)C(C)O1` (centres undefined) + Nc1ccc(C#CCN(C(=O)Cc2ncc(C(F)(F)F)cc2C(F)(F)F)c2ccc(F)cc2)nn1, the IC50 (second compound 0.0316 µM) is reported as 1070 nM, the IC50 (second compound 0.1 µM) is reported as 927 nM and the IC50 (second compound 0.316 µM) is reported as 1020 nM. For the same compound, the IC50 (second compound 1 µM) was 832 nM, the IC50 (second compound 3.16 µM) was 750 nM and the IC50 (second compound 10 µM) was 535 nM. The viability, T/C [1] was 120%, the viability, T/C [2] was 85.1% and the viability, T/C (second compound 0.0316 µM, first compound 0.316 µM) was 83.1%. For the same compound, the viability, T/C (second compound 0.0316 µM, first compound 1 µM) was 56.5%, the viability, T/C (second compound 0.0316 µM, first compound 3.16 µM) was 17.8% and the viability, T/C (second compound 0.0316 µM, first compound 10 µM) was 1.11%. It also gave a viability, T/C [3] of 89.8%, a viability, T/C [4] of 94.6% and a viability, T/C (second compound 0.1 µM, first compound 0.316 µM) of 63.5%. For the same compound, the viability, T/C (second compound 0.1 µM, first compound 1 µM) was 54.5%, the viability, T/C (second compound 0.1 µM, first compound 3.16 µM) was 17.9% and the viability, T/C (second compound 0.1 µM, first compound 10 µM) was 1.22%. The viability, T/C [5] was 93.1%, the viability, T/C [6] was 75.2% and the viability, T/C (second compound 0.316 µM, first compound 0.316 µM) was 65.9%. The viability, T/C (second compound 0.316 µM, first compound 1 µM) was 61.2%, the viability, T/C (second compound 0.316 µM, first compound 3.16 µM) was 16% and the viability, T/C (second compound 0.316 µM, first compound 10 µM) was 2.99%. It also gave a viability, T/C [7] of 86.6%, a viability, T/C [8] of 72.2% and a viability, T/C (second compound 1 µM, first compound 0.316 µM) of 87.2%. The viability, T/C (second compound 1 µM, first compound 1 µM) was 43.9%, the viability, T/C (second compound 1 µM, first compound 3.16 µM) was 9.65% and the viability, T/C (second compound 1 µM, first compound 10 µM) was 0.5%. The viability, T/C [9] was 94.9%, the viability, T/C [10] was 85.7% and the viability, T/C (second compound 3.16 µM, first compound 0.316 µM) was 77.1%. The viability, T/C (second compound 3.16 µM, first compound 1 µM) was 42.7%, the viability, T/C (second compound 3.16 µM, first compound 3.16 µM) was 0.52% and the viability, T/C (second compound 3.16 µM, first compound 10 µM) was 2.06%. It also gave a viability, T/C [11] of 77.7%, a viability, T/C [12] of 85.9% and a viability, T/C (second compound 10 µM, first compound 0.316 µM) of 65.3%. For the same compound, the viability, T/C (second compound 10 µM, first compound 1 µM) was 30.5%, the viability, T/C (second compound 10 µM, first compound 3.16 µM) was 0.39% and the viability, T/C (second compound 10 µM, first compound 10 µM) was 2.85%.

With `Cn1ncnc1[C@H]1c2n[nH]c(=O)c3cc(F)cc(c23)N[C@@H]1c1ccc(F)cc1` + Nc1ccc(C#CCN(C(=O)Cc2ncc(C(F)(F)F)cc2C(F)(F)F)c2ccc(F)cc2)nn1 the IC50 (second compound 0.0316 µM) was > 100 nM, the IC50 (second compound 0.1 µM) was > 100 nM and the IC50 (second compound 0.316 µM) was > 100 nM. For the same compound, the IC50 (second compound 1 µM) was > 100 nM, the IC50 (second compound 3.16 µM) was > 100 nM and the IC50 (second compound 10 µM) was > 100 nM. It also gave a viability, T/C (second compound 0.0316 µM, first compound 0.000316 µM) of 107%, a viability, T/C (second compound 0.0316 µM, first compound 0.001 µM) of 101% and a viability, T/C (second compound 0.0316 µM, first compound 0.00316 µM) of 97.2%. For the same compound, the viability, T/C (second compound 0.0316 µM, first compound 0.01 µM) was 98.6%, the viability, T/C [1] was 99.9% and the viability, T/C [2] was 108%. The viability, T/C (second compound 0.1 µM, first compound 0.000316 µM) was 115%, the viability, T/C (second compound 0.1 µM, first compound 0.001 µM) was 94% and the viability, T/C (second compound 0.1 µM, first compound 0.00316 µM) was 111%. It also gave a viability, T/C (second compound 0.1 µM, first compound 0.01 µM) of 95.5%, a viability, T/C [3] of 107% and a viability, T/C [4] of 101%. The viability, T/C (second compound 0.316 µM, first compound 0.000316 µM) was 107%, the viability, T/C (second compound 0.316 µM, first compound 0.001 µM) was 113% and the viability, T/C (second compound 0.316 µM, first compound 0.00316 µM) was 95.1%. For the same compound, the viability, T/C (second compound 0.316 µM, first compound 0.01 µM) was 113%, the viability, T/C [5] was 125% and the viability, T/C [6] was 89.9%. It also gave a viability, T/C (second compound 1 µM, first compound 0.000316 µM) of 107%, a viability, T/C (second compound 1 µM, first compound 0.001 µM) of 106% and a viability, T/C (second compound 1 µM, first compound 0.00316 µM) of 102%. The viability, T/C (second compound 1 µM, first compound 0.01 µM) was 107%, the viability, T/C [7] was 102% and the viability, T/C [8] was 113%. The viability, T/C (second compound 3.16 µM, first compound 0.000316 µM) was 103%, the viability, T/C (second compound 3.16 µM, first compound 0.001 µM) was 103% and the viability, T/C (second compound 3.16 µM, first compound 0.00316 µM) was 94.4%. The viability, T/C (second compound 3.16 µM, first compound 0.01 µM) was 105%, the viability, T/C [9] was 98.2% and the viability, T/C [10] was 105%. For the same compound, the viability, T/C (second compound 10 µM, first compound 0.000316 µM) was 96.3%, the viability, T/C (second compound 10 µM, first compound 0.001 µM) was 93.3% and the viability, T/C (second compound 10 µM, first compound 0.00316 µM) was 88.1%. It also gave a viability, T/C (second compound 10 µM, first compound 0.01 µM) of 102%, a viability, T/C [11] of 87.2% and a viability, T/C [12] of 90.7%.
